Data from patent US11033496B2, “Nanoparticles for delivery of chemopreventive agents” (OHIO STATE INNOVATION FOUNDATION, priority 2017, dated 2021).
Read-outs that look alike come from different tables or passages of the source.

System: human OSCC cells (three oral SCC cell lines)
Format: cell-based
Conditions: for maximum uptake (fluorescence intensity): 6 h
Method: Mean±S.D., n=18, *=p<0.01, ‡=p,0.001, Mann Whitney U 2-tailed test.
The internalization of free-IDA was more rapid than IDA-NP after 1-hour at 1000 nM (free-IDA: 21.08±5.33 vs. IDA-NP: 12.87±4.32). However, the maximum uptake of IDA-NP was greater than free-IDA after 6 hours at 2500 nM (IDA-NP: 43.53±8.42 vs. free-IDA: 27.61±5.66) and 5000 nM (IDA-NP: 64.44±12.71 vs. free-IDA: 31.06±7.24). [Data collected from three oral SCC cell lines, mean±SD, n=18, *P≤0.01 †P≤0.002, ‡P≤0.001; IDA-NP samples compared to free-IDA samples [Mann-Whitney U two-tailed Test].

- internalization / cellular uptake (fluorescence intensity) (1 h, 1000 nM): 21.08±5.33
- maximum uptake (fluorescence intensity) (2500 nM): 27.61±5.66
- maximum uptake (fluorescence intensity) (5000 nM): 31.06±7.24
SMILES: CC(=O)[C@]1(O)Cc2c(O)c3c(c(O)c2[C@@H](O[C@H]2C[C@H](N)[C@H](O)[C@H](C)O2)C1)C(=O)c1ccccc1C3=O [free-IDA, idarubicin]
